Results on one compound are retold here after patent US11739064B2, “HDAC inhibitors and therapeutic methods using the same” (THE BOARD OF TRUSTEES OF THE UNIVERSITY OF ILLINOIS, priority 2015, dated 2023).

In one assay the target is T1, Human HDAC6 (Homo sapiens, UniProt Q9UBN7).
T1 construct: Full length with N-terminal GST tag, MW=159 kDa; GST (N); host or cells: baculovirus expression system, Sf9 cells
T1 sequence (Q9UBN7 1-1215): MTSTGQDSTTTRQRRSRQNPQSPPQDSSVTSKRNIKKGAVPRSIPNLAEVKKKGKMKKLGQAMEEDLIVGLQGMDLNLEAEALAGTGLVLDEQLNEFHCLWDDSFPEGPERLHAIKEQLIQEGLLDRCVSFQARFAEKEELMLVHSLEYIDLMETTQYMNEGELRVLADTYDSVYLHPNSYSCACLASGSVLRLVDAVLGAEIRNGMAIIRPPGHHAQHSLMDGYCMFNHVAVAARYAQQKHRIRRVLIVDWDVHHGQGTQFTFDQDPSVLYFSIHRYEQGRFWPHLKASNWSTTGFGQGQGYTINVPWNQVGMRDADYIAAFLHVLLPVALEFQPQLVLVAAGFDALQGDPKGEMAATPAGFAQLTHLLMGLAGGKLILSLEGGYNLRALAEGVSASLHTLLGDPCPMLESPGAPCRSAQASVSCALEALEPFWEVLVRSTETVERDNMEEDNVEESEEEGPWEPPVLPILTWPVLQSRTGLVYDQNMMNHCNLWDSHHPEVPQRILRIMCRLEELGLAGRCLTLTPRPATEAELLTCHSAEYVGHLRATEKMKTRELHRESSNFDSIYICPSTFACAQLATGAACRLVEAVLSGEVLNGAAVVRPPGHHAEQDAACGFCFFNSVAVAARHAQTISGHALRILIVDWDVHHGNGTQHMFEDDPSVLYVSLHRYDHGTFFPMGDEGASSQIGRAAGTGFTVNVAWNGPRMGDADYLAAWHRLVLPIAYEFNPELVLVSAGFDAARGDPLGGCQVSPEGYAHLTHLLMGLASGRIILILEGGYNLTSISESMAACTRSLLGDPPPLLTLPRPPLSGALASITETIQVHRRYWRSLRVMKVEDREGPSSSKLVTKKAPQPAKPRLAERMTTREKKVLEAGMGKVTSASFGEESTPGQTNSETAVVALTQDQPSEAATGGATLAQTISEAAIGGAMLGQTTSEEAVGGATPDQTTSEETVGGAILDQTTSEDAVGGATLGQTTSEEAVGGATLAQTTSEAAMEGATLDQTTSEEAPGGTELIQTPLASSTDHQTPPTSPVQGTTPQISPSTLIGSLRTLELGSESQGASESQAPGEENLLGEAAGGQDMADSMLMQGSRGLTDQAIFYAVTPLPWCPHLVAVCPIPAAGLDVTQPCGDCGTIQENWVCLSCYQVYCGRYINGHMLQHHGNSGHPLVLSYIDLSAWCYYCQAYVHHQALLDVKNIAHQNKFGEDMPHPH
The experiment in a line: In vitro HDAC inhibition assay, HDAC6. The assay is classed as biochemical. To be noted: read-out: HDAC isoform IC50, HDAC6.

A further assay has as its target HDAC3/NcoR2 complex (Homo sapiens, UniProt O15379). The experiment in a line: In vitro HDAC inhibition assay, HDAC3. The assay is classed as biochemical.
The target of another assay is T2, HDAC8 (Homo sapiens, UniProt Q9BY41).
T2 sequence (Q9BY41 1-377): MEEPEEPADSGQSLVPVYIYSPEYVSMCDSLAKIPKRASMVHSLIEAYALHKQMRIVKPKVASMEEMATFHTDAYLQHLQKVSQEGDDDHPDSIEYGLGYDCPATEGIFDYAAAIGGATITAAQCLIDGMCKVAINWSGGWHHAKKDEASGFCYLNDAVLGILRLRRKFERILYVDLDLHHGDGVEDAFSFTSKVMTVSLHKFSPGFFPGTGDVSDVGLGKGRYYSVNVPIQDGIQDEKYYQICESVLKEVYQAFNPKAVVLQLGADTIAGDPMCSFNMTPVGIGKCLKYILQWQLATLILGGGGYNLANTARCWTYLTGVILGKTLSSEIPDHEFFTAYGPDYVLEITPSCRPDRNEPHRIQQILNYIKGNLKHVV
In words: HDAC isoform inhibition, HDAC8. The assay is classed as biochemical.

The target in the next assay is Human HDAC1 (Homo sapiens, UniProt Q13547). The experiment in a line: In vitro HDAC inhibition assay, HDAC1. To be noted: read-out: HDAC isoform IC50, HDAC1; NI = No inhibition at a concentration of 50 pM (footnote b).
Chain of Human HDAC1 (Q13547 whole entry, canonical isoform): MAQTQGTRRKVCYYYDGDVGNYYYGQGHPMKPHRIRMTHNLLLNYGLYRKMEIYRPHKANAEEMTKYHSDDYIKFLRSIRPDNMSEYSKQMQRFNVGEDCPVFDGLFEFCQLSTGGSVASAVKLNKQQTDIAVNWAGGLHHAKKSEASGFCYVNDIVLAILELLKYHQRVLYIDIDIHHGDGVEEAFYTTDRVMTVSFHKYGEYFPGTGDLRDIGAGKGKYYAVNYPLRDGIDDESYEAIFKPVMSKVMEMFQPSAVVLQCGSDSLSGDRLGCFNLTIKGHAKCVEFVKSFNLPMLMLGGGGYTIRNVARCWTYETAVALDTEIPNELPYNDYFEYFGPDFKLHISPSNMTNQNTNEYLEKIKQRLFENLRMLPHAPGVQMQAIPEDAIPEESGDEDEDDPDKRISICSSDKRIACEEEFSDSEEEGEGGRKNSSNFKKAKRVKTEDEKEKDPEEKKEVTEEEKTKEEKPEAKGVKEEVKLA

Chain of HDAC3/NcoR2 complex (O15379 whole entry): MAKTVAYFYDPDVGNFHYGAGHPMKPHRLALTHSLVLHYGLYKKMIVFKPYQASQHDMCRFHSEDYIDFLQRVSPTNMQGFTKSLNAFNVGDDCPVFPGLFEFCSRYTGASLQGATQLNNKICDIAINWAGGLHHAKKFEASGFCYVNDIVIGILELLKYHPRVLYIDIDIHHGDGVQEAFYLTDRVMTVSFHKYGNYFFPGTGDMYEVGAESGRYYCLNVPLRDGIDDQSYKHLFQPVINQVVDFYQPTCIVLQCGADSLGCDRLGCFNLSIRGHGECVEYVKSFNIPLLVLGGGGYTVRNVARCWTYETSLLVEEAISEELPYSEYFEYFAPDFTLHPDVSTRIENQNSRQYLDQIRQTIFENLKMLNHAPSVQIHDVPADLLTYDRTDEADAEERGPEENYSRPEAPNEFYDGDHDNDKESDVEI
Chain of HDAC3/NcoR2 complex (Q9Y618 395-489 partner limits assumed): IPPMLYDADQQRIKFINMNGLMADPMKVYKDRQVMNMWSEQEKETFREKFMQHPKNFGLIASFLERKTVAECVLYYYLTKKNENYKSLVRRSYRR

Regarding `CC(C)(C)OC(=O)Nc1ccc(-c2cc(C(=O)NCCc3cc(C(=O)NO)no3)no2)cc1` [Compound 6, (4-{3-[2-(3-Hydroxycarbamoyl-isoxazol-5-yl)-ethylcarbamoyl]-isoxazol-5-yl}-phenyl)-carbamic acid tert-butyl ester], the IC50 turned out to be 0.006 µM on Human HDAC6; 22.8 µM at HDAC3/NcoR2 complex (NI = No inhibition at a concentration of 50 pM (footnote b), read-out: HDAC isoform IC50, HDAC3); 0.81 µM against HDAC8; 16.9 µM at Human HDAC1. The “Selectivity for HDAC6 (fold) over HDAC3” value on HDAC3/NcoR2 complex is recorded as 3800 fold. Besides, on HDAC8, the “Selectivity for HDAC6 (fold) over HDAC8” value is given as 135 fold.

As a reminder, the IC50 is the concentration at which inhibition is half-maximal.
